Experimental data: the supplement of paper PMC10307832

Tests used:
Experiment in all cases: relative viability (nuclei count vs DMSO), 5 days (fraction); higher = more cells survive
[1] = compound: CC1=C(C=C(C=C1)NC(=O)C2=CC(=CC=C2)C(C)(C)C#N)NC3=CC4=C(C=C3)N=CN(C4=O)C [AZ628]
Summary of the method: (§1)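 On vehicle-anchored 1536-well plates, lung cancer cell lines held overnight at 37 °C were pinned with five library-drug doses (not always all listed) spaced by √10. With no medium change over 5 days, they were then fixed, permeabilised and Hoechst-stained in one step and imaged at 4×. MetaXpress counted nuclei, and viability is the median across plates of treated-well over vehicle-well nuclei. Acceptance needed control CV below 25% and at least one doubling.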

[2] = compound: C[As](C)SC[C@H](NC(=O)CC[C@H](N)C(=O)O)C(=O)NCC(=O)O [Darinaparsin]
Summary of the method: as §1

[3] = compound: C1CC2=C(C1)C=C(C=C2)OC3=NC(=C4C(=N3)N(C=N4)CC5=CC=C(C=C5)C6=CC=CC=C6)N[C@@H](CC7=CC=CC=C7)CO [QS11]
Summary of the method: as §1

Cell Line | relative viability ([1]; 0.08 µM) | relative viability ([1]; 0.253 µM) | relative viability ([1]; 0.8 µM) | relative viability ([1]; 2.53 µM) | relative viability ([1]; 8 µM) | relative viability ([2]; 0.08 µM) | relative viability ([2]; 0.8 µM) | relative viability ([2]; 2.53 µM) | relative viability ([2]; 8 µM) | relative viability ([3]; 0.08 µM) | relative viability ([3]; 0.253 µM) | relative viability ([3]; 0.8 µM) | relative viability ([3]; 2.53 µM) | relative viability ([3]; 8 µM)
NCI-H2009 | 0.948 | 0.933 | 0.598 | 0.711 | 0.379 | 1.12 | 1.03 | 0.949 | 1.03 | 1.03 | 1.01 | 0.756 | 0.902 | 0.894
SK-LU-1 | 0.653 | 0.901 | 0.931 | 0.892 | 0.769 | 1.27 | 0.876 | 0.821 | 1.22 | 0.968 | 1.07 | 0.984 | 0.993 | 0.97
RERF-LC-KJ | 1.01 | 0.981 | 0.883 | 0.965 | 0.887 | 1.05 | 1.07 | 0.944 | 1.12 | 0.98 | 0.954 | 0.912 | 0.974 | 0.981
NCI-H322M | 1.1 | 0.952 | 0.986 | 0.95 | 0.788 | 1.02 | 0.951 | 0.767 | 1.03 | 0.923 | 0.904 | 0.998 | 1.15 | 1.41
LK-2 | 1.29 | 0.983 | 0.977 | 0.857 | 0.467 | 1.16 | 0.83 | 0.982 | 1.26 | 0.99 | 1.21 | 1.09 | 0.956 | 1.3
SK-MES-1 | 0.945 | 0.99 | 0.923 | 0.92 | 0.595 | 1.15 | 1.05 | 0.948 | 1.26 | 1.12 | 0.952 | 0.941 | 0.95 | 0.946
NCI-H1299 | 1.1 | 1.09 | 1.04 | 1.2 | 0.84 | 1.07 | 1.01 | 0.978 | 1.12 | 1.07 | 1.04 | 0.91 | 0.94 | 0.797
NCI-H2228 | 0.994 | 1.16 | 0.968 | 1.02 | 0.84 | 1.39 | 1.18 | 0.915 | 1.35 | 0.902 | 1.01 | 0.97 | 1.09 | 1.32
NCI-H1792 | 1.11 | 0.833 | 0.766 | 0.746 | 0.456 | 0.929 | 1.01 |  | 1.28 | 0.738 | 0.903 | 0.827 | 0.823 | 0.669
LOU-NH91 | 0.971 | 0.926 | 0.958 | 0.963 | 0.797 | 1.03 | 0.921 | 0.954 | 1.02 | 0.979 | 0.93 | 0.78 | 0.98 | 0.966
IA-LM | 1.15 | 0.871 | 0.589 | 0.607 | 0.266 | 1.16 | 1.05 | 1.16 | 1.12 | 1 | 1.1 | 0.576 | 0.902 | 0.996
SW 900 | 1.13 | 0.865 | 1.14 | 0.803 | 0.889 | 0.965 | 0.669 | 0.994 | 0.942 | 0.705 | 0.688 | 0.809 | 0.663 | 0.521
LU99A | 0.883 | 0.807 | 0.875 | 1.03 | 0.65 | 0.929 | 1.05 | 0.991 | 1.09 | 0.868 | 0.99 | 1.02 | 1.02 | 0.834
NCI-H661 | 1.08 | 1.05 | 0.861 | 0.938 | 0.842 | 0.999 | 1.01 | 1.03 | 1.12 | 0.992 | 0.977 | 0.853 | 1.01 | 1.03
EBC-1 | 0.955 | 0.958 | 0.983 | 0.911 | 0.625 | 1.2 | 0.971 | 0.935 | 1.05 | 1.06 | 1.05 | 0.934 | 0.97 | 0.92
NCI-H3122 | 0.956 | 0.736 | 0.648 | 0.598 | 0.403 | 1.06 | 1.01 | 1.01 | 1.16 | 1.03 | 1.07 |  | 1.11 | 0.972
LC-2-ad | 1.07 | 0.911 | 0.88 | 0.928 | 0.768 | 1.06 | 0.996 | 1.01 | 1.2 | 1.01 | 1.05 | 0.808 | 0.972 | 0.955
HCC-78 | 1.09 | 0.911 | 1.08 | 1.05 | 0.932 | 1 | 0.918 | 0.936 | 1.09 | 0.958 | 0.955 | 0.94 | 1.03 | 1.05
SW 1573 | 0.984 | 0.863 | 0.696 | 0.812 | 0.564 | 1.21 | 0.971 | 0.966 | 1.19 | 1.04 | 0.961 | 1.01 | 0.896 | 0.655
NCI-H358 | 0.846 | 0.654 | 0.598 | 0.583 | 0.435 | 1.07 | 0.872 | 0.832 | 0.984 | 0.92 | 0.99 | 1.11 | 1.37 | 1.01
ChaGo-K-1 | 1.14 | 0.965 | 0.984 | 1.06 | 1.01 | 1.07 | 1.01 | 0.949 | 1.03 |  | 1 | 1.11 | 1.09 | 1.14
201T | 1.03 | 0.997 | 1.07 | 1.06 | 1.04 | 0.996 | 0.998 | 0.947 | 0.986 | 0.994 | 0.909 | 0.819 | 0.895 | 0.828
HCC-44 | 1.02 | 1.03 | 0.988 | 0.987 | 0.984 | 0.964 | 0.957 | 0.987 | 0.996 | 1.07 | 0.913 | 0.735 | 0.969 | 0.83
EMC-BAC-2 | 1.05 | 1 | 1.04 | 1.07 | 1.09 | 1.18 | 0.942 | 1.04 | 1.01 | 1.02 | 0.964 | 0.86 | 0.986 | 0.79
